Like-named read-outs stand apart in the source and are kept apart here.

One test concerns the target T1, HDAC8 (Homo sapiens, UniProt Q9BY41).
T1 sequence (Q9BY41 1-377): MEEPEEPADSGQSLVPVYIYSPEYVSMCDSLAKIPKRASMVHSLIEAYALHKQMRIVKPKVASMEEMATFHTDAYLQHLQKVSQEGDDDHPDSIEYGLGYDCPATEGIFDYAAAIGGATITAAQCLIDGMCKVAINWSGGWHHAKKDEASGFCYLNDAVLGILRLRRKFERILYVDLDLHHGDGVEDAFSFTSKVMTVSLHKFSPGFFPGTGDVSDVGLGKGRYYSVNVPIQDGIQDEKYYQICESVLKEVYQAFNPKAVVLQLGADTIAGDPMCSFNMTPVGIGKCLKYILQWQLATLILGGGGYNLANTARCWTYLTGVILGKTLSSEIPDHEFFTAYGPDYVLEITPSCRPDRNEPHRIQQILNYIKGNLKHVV
The test can be described thus: HDAC biochemical activity measurement (fluorescent substrate deacetylation). Particulars: 37° C. 30 minutes.

Test [1] concerns Hela (human cervical cancer cells). The test can be described thus: MTT cancer cell growth inhibition. It is filed as cell-based. Particulars: Homo sapiens, HeLa, 72 h, MTT. In outline:
(§1)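 Three-day compound exposure (final 10^−5–10^−10 M, three replicate wells) of cells seeded at 1500 per well precedes a 4 h MTT incubation at 37° C. Viability is taken from 570 nm absorbance after DMSO solubilisation, and GI50 calculated from it.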

Test [2] has as its system HCC827 (human non-small cell lung cancer cells). Briefly: MTT cancer cell growth inhibition. Conditions: Homo sapiens, HCC827, 72 h, MTT, 72 hours incubation, HCC827 cells; read-out: GI50 HCC827. Format: cell-based. In outline: as §1
In test [3] the test system is DU145 (human prostate cancer cells). Briefly: MTT cancer cell growth inhibition. Format: cell-based. Conditions: Homo sapiens, DU-145, 72 h, MTT. In outline: as §1
Test [4] concerns KBM-5 (human chronic myelogenous leukemia). Briefly: MTT cancer cell growth inhibition. Format: cell-based. Particulars: Homo sapiens, KBM5, 72 h, MTT, 72 hours incubation, KBM-5 cells; read-out: GI50 KBM-5. In outline: as §1
For test [5], the system named is N-87 (human gastric cancer cells). Briefly: MTT cancer cell growth inhibition. It is filed as cell-based. Particulars: Homo sapiens, 72 h, MTT, 72 hours incubation, N-87 cells; read-out: GI50 N-87. In outline:
as §1

For test [6], the system named is BGC-823 (human gastric cancer cells). Briefly: MTT cancer cell growth inhibition. It is filed as cell-based. Particulars: Homo sapiens, BGC-823, 72 h, MTT. The method, boiled down: as §1
In test [7] the test system is HT1080 (human fibrosarcoma cells). The test can be described thus: MTT cancer cell growth inhibition. Format: cell-based. Particulars: Homo sapiens, HT-1080, 72 h, MTT. In outline:
as §1

Test [8] deals with K562 (human leukemia cells). Briefly: MTT cancer cell growth inhibition. Format: cell-based. Particulars: Homo sapiens, K562, 72 h, MTT, 72 hours incubation, K562 cells; read-out: GI50 K562. In outline:
as §1

The subject of test [9] is H1975 (non-small cell lung adenocarcinoma). The test can be described thus: MTT cancer cell growth inhibition. Format: cell-based. Particulars: Homo sapiens, NCI-H1975, 72 h, MTT, 72 hours incubation, H1975 cells; read-out: GI50 H1975. In outline: as §1
Test [10] relates to Bel-7402 (human hepatoma cells). The test can be described thus: MTT cancer cell growth inhibition. It is filed as cell-based. Conditions: Homo sapiens, Bel-7402, 72 h, MTT, 72 hours incubation, Bel-7402 cells; read-out: GI50 Bel-7402. In outline:
as §1

Test [11] has as its system U937 (human leukemia cells). The test can be described thus: MTT cancer cell growth inhibition. It is filed as cell-based. Particulars: Homo sapiens, U-937, 72 h, MTT. In outline: as §1
The next test addresses HDAC3 (Homo sapiens, UniProt O15379). Briefly: HDAC biochemical activity measurement (fluorescent substrate deacetylation).
[12] abbreviates: 72 hours incubation, read-out: GI50 Hela.
The mark [13] stands for this setting: 72 hours, present invention, read-out: GI50 Hela, a.
[14] abbreviates: 72 hours incubation, read-out: GI50 Du1.
Where [15] appears, read: 72 hours, present invention, read-out: GI50 Du145, a.
[16] abbreviates: 72 hours incubation, read-out: GI50 BG.
[17] abbreviates: 72 hours, present invention, read-out: GI50 BGC823, a.
The mark [18] stands for this setting: 72 hours incubation, read-out: GI50 HT1.
Where [19] appears, read: 72 hours, present invention, read-out: GI50 HT1080, a.
Setting [20] is: 72 hours incubation, read-out: GI50 U93.
Where [21] appears, read: 72 hours, present invention, read-out: GI50 U937, a.
Where [22] appears, read: read-out: IC50 HDAC3, HDAC3, 37° C. 30 minutes.
[23] abbreviates: Hela cells, 72 hours incubation, read-out: GI50 Hela.
Where [24] appears, read: DU145 cells, 72 hours incubation, read-out: GI50 Du1.
The mark [25] stands for this setting: BGC-823 cells, 72 hours incubation, read-out: GI50 BG.
Where [26] appears, read: HT1080 cells, 72 hours incubation, read-out: GI50 HT1.
Setting [27] is: U937 cells, 72 hours incubation, read-out: GI50 U93.

Chain of HDAC3 (O15379 whole entry, species assumed): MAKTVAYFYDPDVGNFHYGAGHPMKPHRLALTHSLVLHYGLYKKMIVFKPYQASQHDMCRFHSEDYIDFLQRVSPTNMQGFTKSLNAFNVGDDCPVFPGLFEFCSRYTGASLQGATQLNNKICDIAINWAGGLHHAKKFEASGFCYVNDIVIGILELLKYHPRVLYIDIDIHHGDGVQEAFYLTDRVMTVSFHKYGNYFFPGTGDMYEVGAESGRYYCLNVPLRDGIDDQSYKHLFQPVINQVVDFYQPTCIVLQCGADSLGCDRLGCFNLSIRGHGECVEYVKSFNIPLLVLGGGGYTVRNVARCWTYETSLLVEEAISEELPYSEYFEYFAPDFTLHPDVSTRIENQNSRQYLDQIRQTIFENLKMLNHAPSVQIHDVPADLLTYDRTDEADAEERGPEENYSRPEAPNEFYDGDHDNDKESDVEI
Chain of HDAC3 (Q9Y618 395-489 partner limits assumed, species assumed): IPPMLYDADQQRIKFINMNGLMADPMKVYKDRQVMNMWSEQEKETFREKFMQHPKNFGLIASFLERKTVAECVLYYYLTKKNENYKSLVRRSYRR
Protocol for HDAC8: The chemical activity of the compound is determined according to the degree of deacetylation inhibition of the HDAC enzyme. This experiment measured the degree of deacetylation related to tumor proliferation and metastasis of HDAC1, HDAC2, HDAC3, HDAC8, HDAC11 five subtypes HDAC enzymes. After the substrate containing an acetylated lysine side chain and HDAC enzyme are labeled with a fluorescent label, the fluorescent substrate is de acetyl. The fluorescent labeled substrate is cleaved by the enzyme, and the fluorescent substance is released, which generates 460 nm emission light under the excitation of 360 nm light.
HDAC substrate was diluted with reaction buffer to 200M (reaction concentration of 20M), the HDAC enzyme was diluted to the appropriate concentration, then added different concentrations of the test compounds and acted at 37° C. 30 minutes, and then added the same volume of 2-times concentration substrate developing solution (developer), incubated at room temperature for 15 minutes.

For `C/C=C1\NC(=O)c2cccc(n2)CNC(=O)C[C@@H](/C=C/CCSC(=O)CCCCCCC)OC(=O)[C@H](Cc2ccccc2)NC1=O` [Compound 14], the IC50 (commonly the concentration that inhibits the measured activity by half) against HDAC8 was 57 nM; on HDAC3 (setting [22]), 43 nM. Further, the GI50 (usually the concentration giving 50% growth inhibition) in test [1] (setting [12]) was 220 nM; in [1] (setting [13]) it was 220 nM; in [2], 18 nM; in test [3] (setting [14]), 10 nM; in [3] (setting [15]), 12 nM; in [4] it was 94 nM. The GI50 in test [5] is 36 nM; in test [6] (setting [16]), 200 nM; in [6] (setting [17]), 200 nM; in test [7] (setting [18]), 300 nM; in test [7] (setting [19]) it was 300 nM; in test [8], 36 nM. Moreover, the GI50 was 62 nM in test [9], 84 nM in test [10], 30 nM in test [11] (setting [20]) and 3 nM in test [11] (setting [21]).

With `C/C=C1\NC(=O)c2cccc(n2)CNC(=O)C[C@@H](/C=C/CCSC(C)=O)OC(=O)[C@H](CCCCNC(=O)OCC2c3ccccc3-c3ccccc32)NC1=O` [Compound 16], the results for the IC50 on HDAC8 and on HDAC3 (setting [22]) were 61 nM and 49 nM, respectively. The GI50 is 21000 nM in test [1] (setting [12]); 49 nM in test [2]; 6100 nM in test [3] (setting [14]); 82 nM in test [4]; 27 nM in [5]; 2100 nM in test [6] (setting [16]). Besides, the GI50 in test [7] (setting [18]) worked out at 1300 nM; in test [8] it was 25 nM; in test [9], 39 nM; in test [10], 91 nM; in [11] (setting [20]), 17900 nM.

With `C/C=C1\NC(=O)c2nc(ccc2F)CNC(=O)C[C@@H](/C=C/CCSC(=O)CCCCCCC)OC(=O)[C@H](CC)NC1=O` [Example 54], the IC50 on HDAC8 and against HDAC3 was 34 nM throughout. Also, the GI50 in [1] (setting [12]) was determined as 90 nM; in [2] it was 51 nM; in [3] (setting [14]) it was 20 nM; in test [4], 99 nM; in [5], 49 nM; in test [6] (setting [16]) it was 40 nM. Besides, the GI50 in test [7] (setting [18]) worked out at 50 nM; in test [8], 29 nM; in test [9], 43 nM; in test [10], 51 nM; in [11] (setting [20]), 40 nM.

On to `C/C=C1\NC(=O)c2nc(ccc2F)CNC(=O)C[C@@H](/C=C/CCSC(=O)CCCCC)OC(=O)[C@H](C(C)C)NC1=O` [Compound 36], for which the IC50 came out at 35 nM on HDAC8 and 37 nM on HDAC3 (setting [22]). In addition, the GI50 in test [1] (setting [12]) came out at 60 nM; in [2], 62 nM; in test [3] (setting [14]), 20 nM; in [4], 61 nM; in [5], 39 nM; in test [6] (setting [16]) it was 30 nM. For the same compound, the GI50 in test [7] (setting [18]) came to 60 nM; in [8] it was 29 nM; in [9] it was 19 nM; in test [10], 62 nM; in [11] (setting [20]), 20 nM.

As to `C/C=C1\NC(=O)c2ccc(F)c(n2)CNC(=O)C[C@@H](/C=C/CCSC(=O)CCCCCCC)OC(=O)[C@H](Cc2ccccc2)NC1=O` [Example 71], the IC50 amounted to 41 nM on HDAC8 and 34 nM at HDAC3. Besides, the GI50 in [1] (setting [12]) worked out at 70 nM; in test [2], 84 nM; in [3] (setting [14]) it was 60 nM; in test [4] it was 73 nM; in test [5] it was 55 nM; in [6] (setting [16]) it was 50 nM. In addition, the GI50 turned out to be 80 nM in [7] (setting [18]); 63 nM in [8]; 51 nM in test [9]; 84 nM in [10]; 50 nM in test [11] (setting [20]).

`C/C=C1\NC(=O)c2cccc(n2)CNC(=O)C[C@@H](/C=C/CCSC(C)=O)OC(=O)[C@H](CCCCN)NC1=O` [Compound 15]: the IC50 against HDAC8 amounted to 43 nM; at HDAC3 (setting [22]) it was 57 nM. Besides, the GI50 in test [1] (setting [12]) amounted to 15700 nM; in [2] it was 51 nM; in [3] (setting [14]) it was 480 nM; in [4], 95 nM; in test [5], 29 nM; in [6] (setting [16]), 1220 nM. Besides, the GI50 was found to be 38700 nM in [7] (setting [18]); 26 nM in test [8]; 38 nM in test [9]; 86 nM in [10]; 1120 nM in test [11] (setting [20]).

Regarding `C/C=C1\NC(=O)c2cccc(n2)NC(=O)C[C@@H](/C=C/CCSC(C)=O)OC(=O)[C@H](C(C)C)NC1=O` [Example 22], the IC50 was 47 nM at HDAC8 and 61 nM on HDAC3. Further, the GI50 stood at 390 nM in [1] (setting [12]); 59 nM in test [2]; 40 nM in [3] (setting [14]); 72 nM in test [4]; 39 nM in [5]; 5880 nM in test [6] (setting [16]). The GI50 in test [7] (setting [18]) came to 50 nM; in [8], 34 nM; in test [9], 41 nM; in [10], 84 nM; in [11] (setting [20]), 120 nM.

Take `CCCCCCCC(=O)SCC/C=C/[C@@H]1CC(=O)NCc2cccc(n2)C(=O)NCC(=O)N[C@@H](C(C)C)C(=O)O1` [Compound 246]: the figures for the IC50 on HDAC8 and on HDAC3 (setting [22]) were 132 nM and 87 nM, respectively. The GI50 in test [1] (setting [23]) was determined as 10 nM; in test [1] (setting [13]), 13 nM; in [2], 53 nM; in test [3] (setting [24]) it was 20 nM; in [3] (setting [15]), 20 nM; in [4], 56 nM. The GI50 in test [5] stood at 41 nM; in test [6] (setting [25]), 1020 nM; in [6] (setting [17]) it was 1020 nM; in test [7] (setting [26]), 10 nM; in test [7] (setting [19]), 17 nM; in test [8] it was 12 nM. In addition, the GI50 worked out at 63 nM in test [9], 38 nM in [10], 110 nM in [11] (setting [21]) and 110 nM in test [11] (setting [27]).

For the compound `C/C=C1\NC(=O)c2cccc(n2)CNC(=O)C[C@@H](/C=C/CCSC(=O)CCCCCCC)OC(=O)[C@@H](C)NC1=O` [Compound 236], the IC50 against HDAC8 was found to be 67 nM; at HDAC3 (setting [22]), 66 nM. Also, the GI50 in test [1] (setting [23]) turned out to be 810 nM; in test [1] (setting [13]), 810 nM; in test [2], 26 nM; in test [3] (setting [24]), 90 nM; in test [3] (setting [15]) it was 91 nM; in [4] it was 33 nM. In addition, the GI50 worked out at 26 nM in test [5]; 90 nM in [6] (setting [25]); 93 nM in test [6] (setting [17]); 190 nM in test [7] (setting [26]); 197 nM in [7] (setting [19]); 73 nM in test [8]. For the same compound, the GI50 in test [9] worked out at 72 nM; in [10], 75 nM; in test [11] (setting [21]), 77 nM; in test [11] (setting [27]), 70 nM.
